Literature values in US20250207102A1, “METHODS FOR CO-CULTURING GENOTOXIC BACTERIA AND ORGANOIDS” (priority 2022, published 2025).

## Cc1cccc(-c2nn(C(=S)Nc3ccccc3)cc2-c2ccnc3ccccc23)n1 [A83-01]
ALK-1,-2,-3,-6 and MAPK
  inhibition of ALK-1,-2,-3,-6 and MAPK activity: only weakly inhibits
Smad2
  phosphorylation of Smad2: blocks phosphorylation of Smad2
